The structures appear in SMILES notation. Like-named read-outs stand apart in the source and are kept apart here.

The test system of assay [1] is Brevibacterium lactofermentum KFCC-10680. Briefly: α-Aminobutyric acid resistance: growth on minimal medium containing α-aminobutyric acid. The settings on record: strain KFCC-10680, cultivation at 30° C. for 6 days. In kind it is cell-based.
Assay [2] relates to Brevibacterium lactofermentum CJJA22. Described as above. Particulars: strain printed CJJA21; α-aminobutyric acid 20 g/l; cultivation at 30° C. for 6 days. In kind it is cell-based.
The subject of assay [3] is Brevibacterium lactofermentum KFCC-10680. Particulars: strain KFCC-10680, cultivation at 30° C. for 6 days.
For assay [4], the system named is Brevibacterium lactofermentum CJJA21. Particulars: strain CJJA21; sodium azide 800 mg/l; cultivation at 30° C. for 6 days.

For the molecule `CCC(N)C(=O)O` (racemic) [α-aminobutyric acid, D,L-α-amino-n-butyric acid], the growth entry in assay [1] (α-aminobutyric acid 5 g/l) is given as “+”; in assay [1] (α-aminobutyric acid 10 g/l), “−”; in assay [1] (α-aminobutyric acid 15 g/l), “−”; in assay [1] (α-aminobutyric acid 20 g/l), “−”; in assay [2], “−”.
In the case of `[N-]=[N+]=[N-]` [Sodium azide, sodium azide], the growth entry in assay [3] (sodium azide 100 mg/l) is “+”; in assay [3] (sodium azide 200 mg/l) it was “+”; in assay [3] (sodium azide 300 mg/l), “−”; in assay [3] (sodium azide 500 mg/l), “−”; in assay [3] (sodium azide 800 mg/l) it was “−”; in assay [4] it was “−”.

Source of the values: patent publication US7192760B2 (priority 2000, dated 2007).
